Source: ChEMBL document CHEMBL4699448, “Garcinoic Acids and a Benzophenone Derivative from the Seeds of Garcinia kola and Their Antibacterial Activities against Oral Bacterial Pathogenic Organisms” (2020)
In brackets after ≈: the same amount, converted by molar mass.

Columns and labels:
Type in all cases: functional
Porphyromonas gingivalis [1] = experiment: Antibacterial activity against Porphyromonas gingivalis ATCC 33277 assessed as reduction in bacterial growth incubated for 24 hrs by INT dye based broth dilution method
Porphyromonas gingivalis [2] = experiment: Bactericidal activity against Porphyromonas gingivalis ATCC 33277 assessed as reduction in bacterial growth incubated for 48 hrs by INT dye based broth dilution method
Streptococcus sobrinus [3] = experiment: Antibacterial activity against Streptococcus sobrinus 6715 assessed as reduction in bacterial growth incubated for 24 hrs by INT dye based broth dilution method
Streptococcus sobrinus [4] = experiment: Bactericidal activity against Streptococcus sobrinus 6715 assessed as reduction in bacterial growth incubated for 48 hrs by INT dye based broth dilution method

Row | SMILES | MIC (Porphyromonas gingivalis [1]) | MIC (Streptococcus sobrinus [3]) | MBC (Porphyromonas gingivalis [2]) | MBC (Streptococcus sobrinus [4])
1 | C/C(=C\CC/C(C)=C/CC[C@]1(C)CCc2c(c(C)cc(O)c2-c2c(O)cc(C)c3c2CC[C@@](C)(CC/C=C(\C)CC/C=C(\C)CC/C=C(\C)C(=O)O)O3)O1)CC/C=C(\C)C(=O)O | > 1000 µM | > 1000 µM | > 1000 µM | > 1000 µM
2 | COc1ccc([C@H]2Oc3c(c(O)cc(O)c3[C@H]3C(=O)c4c(O)cc(O)cc4O[C@@H]3c3ccc(O)cc3)C(=O)[C@@H]2O)cc1O | > 1000 µM | 250 µM (≈ 147 µg/mL) | > 1000 µM | > 1000 µM
3 | C/C(=C\CC/C(C)=C/CC[C@]1(C)CCc2cc(O)cc(C)c2O1)CC/C=C(\C)C(=O)O | 31.3 µM (≈ 13.4 µg/mL) | 31.3 µM (≈ 13.4 µg/mL) | 250 µM (≈ 107 µg/mL) | 62.5 µM (≈ 26.7 µg/mL)
4 | O=C1C[C@@H](c2ccc(O)cc2)Oc2c1c(O)cc(O)c2[C@H]1C(=O)c2c(O)cc(O)cc2O[C@@H]1c1ccc(O)cc1 | 250 µM (≈ 136 µg/mL) | 250 µM (≈ 136 µg/mL) | > 1000 µM | 500 µM (≈ 271 µg/mL)
5 | C/C(=C\CC/C(C)=C/CC[C@]1(C)CCc2cc(Oc3c(O)cc(C)c4c3CC[C@@](C)(CC/C=C(\C)CC/C=C(\C)CC/C=C(\C)C(=O)O)O4)cc(C)c2O1)CC/C=C(\C)C(=O)O | > 1000 µM | > 1000 µM | > 1000 µM | > 1000 µM

Now from value to molecule, other results behind:

Row | MIC (Porphyromonas gingivalis [1]) | MIC (Streptococcus sobrinus [3]) | SMILES | MBC (Porphyromonas gingivalis [2]) | MBC (Streptococcus sobrinus [4])
6 | > 1000 µM | 250 µM (≈ 140 µg/mL) | O=C1c2c(O)cc(O)cc2O[C@H](c2ccc(O)cc2)[C@H]1c1c(O)cc(O)c2c1O[C@H](c1ccc(O)cc1)[C@@H](O)C2=O | > 1000 µM | 1000 µM (≈ 558 µg/mL)
7 | 125 µM (≈ 71.6 µg/mL) | 500 µM (≈ 286 µg/mL) | COc1ccc([C@@H]2CC(=O)c3c(O)cc(O)c([C@H]4C(=O)c5c(O)cc(O)cc5O[C@@H]4c4ccc(O)cc4)c3O2)cc1O | > 1000 µM | > 1000 µM
8 | > 1000 µM | > 1000 µM | C/C(=C\CC/C(C)=C/CC[C@]1(C)CCc2cc(Oc3c(O)c(C)c(C)c4c3CC[C@@](C)(CC/C=C(\C)CC/C=C(\C)CC/C=C(\C)C(=O)O)O4)cc(C)c2O1)CC/C=C(\C)C(=O)O | > 1000 µM | > 1000 µM
9 | > 1000 µM | 250 µM (≈ 144 µg/mL) | O=C1c2c(O)cc(O)cc2O[C@H](c2ccc(O)cc2)[C@H]1c1c(O)cc(O)c2c1O[C@H](c1ccc(O)c(O)c1)[C@@H](O)C2=O | > 1000 µM | 1000 µM (≈ 574 µg/mL)
10 | 62.5 µM (≈ 21.9 µg/mL) | 15.6 µM (≈ 5.47 µg/mL) | CC(C)=CCC/C(C)=C/Cc1c(O)cc(C(=O)c2ccccc2)cc1O | > 1000 µM | 31.3 µM (≈ 11 µg/mL)
11 | > 1000 µM | > 1000 µM | CC1(C)CC[C@]2(C)CC[C@]3(C)[C@H]4CC=C5[C@@H](CC[C@H](O)C5(C)C)[C@]4(C)CC[C@@]3(C)[C@@H]2C1 [GLUTINOL] | > 1000 µM | > 1000 µM
12 | 15.6 µM (≈ 7.89 µg/mL) | 2 µM (≈ 1.01 µg/mL) | N=C(NCCCCCCNC(=N)NC(=N)Nc1ccc(Cl)cc1)NC(=N)Nc1ccc(Cl)cc1 [CHLORHEXIDINE] | 31.3 µM (≈ 15.8 µg/mL) | 2 µM (≈ 1.01 µg/mL)
